Source: patent US6881741B2 (ViroChem Pharma Inc., priority 2001, dated 2005)

Biological target: recombinant HCV NS5B (HCV RNA-dependent RNA polymerase) (Hepatitis C virus genotype 1b, UniProt P26663)
Test: biochemical
Conditions: HCV polymerase activity, list of compounds of Example 27; read-out: IC50 (polymerase activity)

recombinant HCV NS5B (HCV RNA-dependent RNA polymerase), sequence (P26663 2420-3010 limits assumed): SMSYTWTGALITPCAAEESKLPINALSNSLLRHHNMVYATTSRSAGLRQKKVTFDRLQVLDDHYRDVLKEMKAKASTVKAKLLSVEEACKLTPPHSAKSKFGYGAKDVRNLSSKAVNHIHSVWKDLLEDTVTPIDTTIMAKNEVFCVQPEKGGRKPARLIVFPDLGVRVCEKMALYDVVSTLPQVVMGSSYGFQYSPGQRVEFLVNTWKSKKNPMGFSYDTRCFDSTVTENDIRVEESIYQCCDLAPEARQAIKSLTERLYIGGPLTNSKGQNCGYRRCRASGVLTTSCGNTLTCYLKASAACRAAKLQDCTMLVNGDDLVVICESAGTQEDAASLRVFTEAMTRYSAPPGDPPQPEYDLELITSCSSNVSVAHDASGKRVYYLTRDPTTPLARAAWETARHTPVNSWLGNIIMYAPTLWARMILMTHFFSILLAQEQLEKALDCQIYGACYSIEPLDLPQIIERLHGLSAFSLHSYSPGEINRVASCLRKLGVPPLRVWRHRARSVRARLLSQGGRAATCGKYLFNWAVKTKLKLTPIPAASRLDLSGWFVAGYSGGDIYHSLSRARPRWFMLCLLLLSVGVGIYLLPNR

`CC1CCC(C(=O)N(c2cc(-c3ccccc3)sc2C(=O)O)C(C)C)C(O)C1` (stereo not shown) [Compound 402, 3-[(2-HYDROXY-4-METHYL- CYCLOHEXANECARBONYL)-ISOPROPYL- AMINO]-5-PHENYL-THIOPHENE-2- CARBOXYLIC ACID] and `CC1=CCC(C(=O)N(c2cc(-c3ccccc3)sc2C(=O)O)C(C)C)C1` (stereo not shown) [Compound 405, 3-[ISOPROPYL-(3-METHYL-CYCLOPENT- 3-ENECARBONYL)-AMINO]-5-PHENYL- THIOPHENE-2-CARBOXYLIC ACID] cannot be ordered by IC50: under 5 µM for the first, under 5 µM for the second.

Compared with `Cc1ccccc1CN(C(=O)C1CCC1)c1cc(-c2ccccc2)sc1C(=O)O` [Compound 432, 3-[CYCLOBUTANECARBONYL-(2- METHYL-BENZYL)-AMINO]-5-PHENYL- THIOPHENE-2-CARBOXYLIC ACID], `O=C(O)c1sc(-c2ccccc2)cc1N(Cc1ccc(F)cc1F)C(=O)C1CCC1` [Compound 495, 3-[CYCLOBUTANECARBONYL-(2,4- DIFLUORO-BENZYL)-AMINO]-5-PHENYL- THIOPHENE-2-CARBOXYLIC ACID] is lower in IC50: 5 to 20 µM for the first, under 5 µM for the second. The second is the more potent here.

First: CCCC(=O)N(Cc1ccc(C)cc1)c1cc(-c2ccccc2)sc1C(=O)O [Compound 470, 3-[BUTYRYL-(4-METHYL-BENZYL)- AMINO]-5-PHENYL-THIOPHENE-2- CARBOXYLIC ACID]
Second: CCC(=O)N(Cc1cccc(OC)c1)c1cc(-c2ccccc2)sc1C(=O)O [Compound 471, 3-[(3-METHOXY-BENZYL)-PROPIONYL- AMINO]-5-PHENYL-THIOPHENE-2- CARBOXYLIC ACID]
The IC50 of the first is lower: 5 to 20 µM for the first, over 20 µM for the second.

Compared with `CC(C)N(C(=O)c1ccc(Cl)cc1Cl)c1c(C(=O)O)sc(-c2ccccc2)c1F` [Compound 542, 3-[(2,4-DICHLORO-BENZOYL)- ISOPROPYL-AMINO]-4-FLUORO-5- PHENYL-THIOPHENE-2-CARBOXYLIC ACID], `CC(C1CCNCC1)N(C(=O)c1ccc(Cl)cc1Cl)c1cc(-c2ccccc2)sc1C(=O)O` (stereo not shown) [Compound 529, 3-[(2,4-DICHLORO-BENZOYL)-(1- PIPERIDIN-4-YL-ETHYL)-AMINO]-5- PHENYL-THIOPHENE-2- CARBOXYLIC ACID; COMPOUND WITH TRIFLUORO-ACETIC ACID] is lower in IC50: 5 to 20 µM for the first, under 5 µM for the second.

`CN(C(=O)C1CCCC1)c1cc(-c2ccccc2)sc1C(=O)O` [Compound 497, 3-(CYCLOPENTANECARBONYL-METHYL- AMINO)-5-PHENYL-THIOPHENE-2- CARBOXYLIC ACID] and `CN(C(=O)C1CCCCC1)c1cc(-c2ccccc2)sc1C(=O)O` [Compound 498, 3-(CYCLOHEXANECARBONYL-METHYL- AMINO)-5-PHENYL-THIOPHENE-2- CARBOXYLIC ACID] cannot be ordered by IC50: under 5 µM for the first, under 5 µM for the second.

With `C=CCN(C(=O)CCCC)c1cc(-c2ccccc2)sc1C(=O)O` [Compound 399, 3-(ALLYL-PENTANOYL-AMINO)-5- PHENYL-THIOPHENE-2-CARBOXYLIC ACID] the IC50 was 5 to 20 µM.

Same assay, conditions: related polymerase activity (Example 27 list); read-out: IC50

First: O=C(O)c1sc(-c2ccccc2)cc1NS(=O)(=O)c1c(F)cc(F)cc1F [Compound 151, 5-PHENYL-3-(2,4,6-TRIFLUORO-BENZENESULFONYLAMINO)-THIOPHENE-2-CARBOXYLIC ACID]
Second: Cc1nn(C)c(Cl)c1S(=O)(=O)Nc1cc(-c2ccccc2)sc1C(=O)O [Compound 41, 3-(5-CHLORO-1,3-DIMETHYL-1H-PYRAZOLE-4-SULFONYLAMINO)-5-PHENYL-THIOPHENE-2-CARBOXYLIC ACID]
The IC50 of the first is lower: under 5 µM for the first, 5 to 20 µM for the second. The first is the more potent here.

First: CCN(C(=O)C1CCCC1)c1cc(-c2ccccc2)sc1C(=O)O [Compound 391, 3-(CYCLOPENTANECARBONYL-ETHYL- AMINO)-5-PHENYL-THIOPHENE-2- CARBOXYLIC ACID]
Second: CCCCC(=O)N(C)c1cc(-c2ccccc2)sc1C(=O)O [Compound 389, 3-(METHYL-PENTANOYL-AMINO)-5- PHENYL-THIOPHENE-2-CARBOXYLIC ACID]
The IC50 of the first is higher: 5 to 20 µM for the first, under 5 µM for the second. The second is the more potent here.

`Cc1csc(C(=O)N(C)c2cc(-c3ccccc3)sc2C(=O)O)c1` [Compound 293, 3-[METHYL-(4-METHYL-THIOPHENE-2-CARBONYL)-AMINO]-5-PHENYL-THIOPHENE-2-CARBOXYLIC ACID] and `CN(C(=O)c1ccc(Cl)c(Cl)c1)c1cc(-c2ccccc2)sc1C(=O)O` [Compound 253, 3-[(3,4-DICHLORO-BENZOYL)-METHYL-AMINO]-5-PHENYL-THIOPHENE-2-CARBOXYLIC ACID] fall in the same range of IC50: 5 to 20 µM for the first, 5 to 20 µM for the second.

`Cc1ccc(C(=O)N(C)c2cc(-c3ccc(C)cc3)sc2C(=O)O)cc1` [Compound 199, 3-[METHYL-(4-METHYL-BENZOYL)-AMINO]-5-P-TOLYL-THIOPHENE-2-CARBOXYLIC ACID] and `Cc1ccc(C(=O)N(C)c2cc(-c3ccc(OC(F)(F)F)cc3)sc2C(=O)O)cc1` [Compound 216, 3-[METHYL-(4-METHYL-BENZOYL)-AMINO]-5-(4-TRIFLUOROMETHOXY-PHENYL)-THIOPHENE-2-CARBOXYLIC ACID] fall in the same range of IC50: 5 to 20 µM for the first, 5 to 20 µM for the second.

`Cc1ccc(-c2cc(NS(=O)(=O)c3ccc(F)cc3F)c(C(=O)O)s2)cc1` [Compound 119, 3-(2,4-DIFLUORO-BENZENESULFONYLAMINO)-5-P-TOLYL-THIOPHENE-2-CARBOXYLIC ACID] and `Cc1ccccc1S(=O)(=O)Nc1cc(-c2ccc(C#N)cc2)sc1C(=O)O` [Compound 83, 5-(4-CYANO-PHENYL)-3-(TOLUENE-2-SULFONYLAMINO)-THIOPHENE-2-CARBOXYLIC ACID] cannot be ordered by IC50: under 5 µM for the first, under 5 µM for the second.

`Cc1ccc(C(=O)N(Cc2cccc(Cl)c2)c2cc(-c3ccccc3)sc2C(=O)O)cc1` [Compound 335, 3-[(3-CHLORO-BENZYL)-(4-METHYL- BENZOYL)-AMINO]-5-PHENYL- THIOPHENE-2-CARBOXYLIC ACID] and `Cc1ccc(C(=O)N(Cc2ccccc2)c2cc(-c3ccccc3)sc2C(=O)O)cc1` [Compound 340, 3-[BENZYL-(4-METHYL-BENZOYL)- AMINO]-5-PHENYL-THIOPHENE-2- CARBOXYLIC ACID] cannot be ordered by IC50: under 5 µM for the first, under 5 µM for the second.

Compared with `CCCCCc1ccc(S(=O)(=O)Nc2cc(-c3ccccc3)sc2C(=O)O)cc1` [Compound 174, 3-(4-PENTYL-BENZENESULFONYLAMINO)-5-PHENYL-THIOPHENE-2-CARBOXYLIC ACID], `Cc1ccccc1S(=O)(=O)Nc1cc(-c2cccc(O)c2)sc1C(=O)O` [Compound 171, 5-(3-HYDROXY-PHENYL)-3-(TOLUENE-2-SULFONYLAMINO)-THIOPHENE-2-CARBOXYLIC ACID] is lower in IC50: 5 to 20 µM for the first, under 5 µM for the second.

First: O=C(O)c1sc(-c2ccccc2)cc1N(Cc1ccc(-c2cc3ccccc3o2)s1)C(=O)c1ccc(Cl)cc1Cl [Compound 12, 3-[(5-BENZOFURAN-2-YL-THIOPHEN-2-YLMETHYL)-(2,4-DICHLORO-BENZOYL)-AMINO]-5-PHENYL-THIOPHENE-2-CARBOXYLIC ACID]
Second: CC(C)N(C(=O)c1ccc(Cl)cc1Cl)c1cc(-c2ccccc2)sc1C(=O)O [Compound 149, 3-[(2,4-DICHLORO-BENZOYL)-ISOPROPYL-AMINO]-5-PHENYL-THIOPHENE-2-CARBOXYLIC ACID]
The IC50 of the first is higher: 5 to 20 µM for the first, under 5 µM for the second. The second is the more potent here.

First: CC(=O)c1cccc(-c2cc(N(C)C(=O)c3ccc(C)cc3)c(C(=O)O)s2)c1 [Compound 272, 5-(3-ACETYL-PHENYL)-3-[METHYL-(4-METHYL-BENZOYL)-AMINO]-THIOPHENE-2-CARBOXYLIC ACID]
Second: Cc1ccc(C(=O)N(C)c2cc(-c3cccc(C#N)c3)sc2C(=O)O)cc1 [Compound 206, 5-(3-CYANO-PHENYL)-3-[METHYL-(4-METHYL-BENZOYL)-AMINO]-THIOPHENE-2-CARBOXYLIC ACID]
The IC50 of the first is higher: 5 to 20 µM for the first, under 5 µM for the second.

`Cc1ccccc1S(=O)(=O)Nc1cc(-c2ccc(C(N)=O)cc2)sc1C(=O)O` [Compound 282, 5-(4-CARBAMOYL-PHENYL)-3-(TOLUENE-2-SULFONYLAMINO)-THIOPHENE-2-CARBOXYLIC ACID] and `Cc1ccccc1S(=O)(=O)Nc1cc(-c2ccccc2C(F)(F)F)sc1C(=O)O` [Compound 106, 3-(TOLUENE-2-SULFONYLAMINO)-5-(2-TRIFLUOROMETHYL-PHENYL)-THIOPHENE-2-CARBOXYLIC ACID] fall in the same range of IC50: 5 to 20 µM for the first, 5 to 20 µM for the second.

`CC(C)CC(=O)N(C)c1cc(-c2ccccc2)sc1C(=O)O` [Compound 172, 3-[METHYL-(3-METHYL-BUTYRYL)-AMINO]-5-PHENYL-THIOPHENE-2-CARBOXYLIC ACID] and `Cc1ccc(C(=O)N(c2cc(-c3ccccc3)sc2C(=O)O)C(C)C)c(Br)c1` [Compound 309, 3-[(2-BROMO-4-METHYL-BENZOYL)- ISOPROPYL-AMINO]-5-PHENYL- THIOPHENE-2-CARBOXYLIC ACID] cannot be ordered by IC50: under 5 µM for the first, under 5 µM for the second.

First: O=C(O)c1sc(-c2ccccc2)cc1NS(=O)(=O)c1ccc(C(F)(F)F)cn1 [Compound 98, 5-PHENYL-3-(5-TRIFLUOROMETHYL-PYRIDINE-2-SULFONYLAMINO)-THIOPHENE-2-CARBOXYLIC ACID]
Second: COC(=O)c1cc(S(=O)(=O)Nc2cc(-c3ccccc3)sc2C(=O)O)oc1C [Compound 154, 5-(2-CARBOXY-5-PHENYL-THIOPHEN-3-YLSULFAMOYL)-2-METHYL-FURAN-3-CARBOXYLIC ACID METHYL ESTER]
The IC50 of the first is higher: 5 to 20 µM for the first, under 5 µM for the second.

`C=CCN(C(=O)Cc1ccc(Cl)cc1)c1cc(-c2ccccc2)sc1C(=O)O` [Compound 339, 3-(ALLYL-[2-(4-CHLORO-PHENYL)- ACETYL]-AMINO)-5-PHENYL-THIOPHENE- 2-CARBOXYLIC ACID] and `CN(C(=O)c1ccc(Cl)nc1Cl)c1cc(-c2ccccc2)sc1C(=O)O` [Compound 245, 3-[(2,6-DICHLORO-PYRIDINE-3-CARBONYL)-METHYL-AMINO]-5-PHENYL-THIOPHENE-2-CARBOXYLIC ACID] fall in the same range of IC50: 5 to 20 µM for the first, 5 to 20 µM for the second.

`Cc1ccc(C(=O)N(c2cc(-c3ccccc3)sc2C(=O)O)C(C)C)c(C)c1` [Compound 262, 3-[(2,4-DIMETHYL-BENZOYL)-ISOPROPYL-AMINO]-5-PHENYL-THIOPHENE-2-CARBOXYLIC ACID] and `CC(C)(C)OC(=O)N1CCC(N(C(=O)c2ccc(Cl)cc2Cl)c2cc(-c3ccccc3)sc2C(=O)O)CC1` [Compound 365, 4-[(2-CARBOXY-5-PHENYL-THIOPHEN-3- YL)-(2,4-DICHLORO-BENZOYL)-AMINO]- PIPERIDINE-1-CARBOXYLIC ACID #TERT!-BUTYL ESTER] cannot be ordered by IC50: under 5 µM for the first, under 5 µM for the second.

`Cc1ccccc1S(=O)(=O)Nc1cc(Cc2cccc(C#N)c2)sc1C(=O)O` [Compound 150, 5-(3-CYANO-BENZYL)-3-(TOLUENE-2-SULFONYLAMINO)-THIOPHENE-2-CARBOXYLIC ACID] was tested, and the IC50 was over 20 µM.
